In data set [1] the target is Isocitrate lyase (Candida albicans, UniProt Q9P8Q7). In words: Inhibition of Candida albicans ATCC 10231 isocitrate lyase by spectrophotometric analysis.
The subject of data set [2] is Escherichia coli. In words: Antimicrobial activity against Escherichia coli ATCC 35270 after 24 hrs. As to conditions: ATCC 35270, 24 h. The class given is functional.
Data set [3] deals with Salmonella enterica. The data set is described as follows: Antimicrobial activity against Salmonella enterica ATCC 14028 after 24 hrs. As to conditions: ATCC 14028, 24 h. Type of data set: functional.
Data set [4] has as its system Bacillus spizizenii. The data set is described as follows: Antimicrobial activity against Bacillus subtilis ATCC 6633 after 24 hrs. The class given is functional. As to conditions: ATCC 6633, 24 h.
Data set [5] relates to Proteus hauseri. In words: Antimicrobial activity against Proteus hauseri NBRC 3851 after 24 hrs. Type of data set: functional. To be noted: NBRC 3851, 24 h.
Data set [6] has as its system Kocuria rhizophila. In words: Antimicrobial activity against Kocuria rhizophila NBRC 12708 after 24 hrs. The class given is functional. As to conditions: NBRC 12708, 24 h.
Data set [7] concerns Staphylococcus aureus. The data set is described as follows: Antimicrobial activity against Staphylococcus aureus ATCC 6538p after 24 hrs. Type of data set: functional.
Data set [8] in a line: Cytotoxicity against human A549 cells after 48 hrs by MTT assay. Type of data set: cell-based. To be noted: read-out: LC50.
Data set [9] in a line: Cytotoxicity against human K562 cells after 48 hrs by MTT assay. The class given is cell-based. To be noted: read-out: LC50.
Data set [10] in a line: Inhibition of Na+/K+-ATPase by fluorometric method.
Data set [11] can be described thus: Inhibition of SortaseA.

Data on 11 compounds can be found in ChEMBL document CHEMBL2203252, “Brominated aromatic furanones and related esters from the ascidian Synoicum sp” (J Nat Prod, 2012).

≈ marks a conversion by molar mass, not a printed value.

Chain of Isocitrate lyase (Q9P8Q7 whole entry): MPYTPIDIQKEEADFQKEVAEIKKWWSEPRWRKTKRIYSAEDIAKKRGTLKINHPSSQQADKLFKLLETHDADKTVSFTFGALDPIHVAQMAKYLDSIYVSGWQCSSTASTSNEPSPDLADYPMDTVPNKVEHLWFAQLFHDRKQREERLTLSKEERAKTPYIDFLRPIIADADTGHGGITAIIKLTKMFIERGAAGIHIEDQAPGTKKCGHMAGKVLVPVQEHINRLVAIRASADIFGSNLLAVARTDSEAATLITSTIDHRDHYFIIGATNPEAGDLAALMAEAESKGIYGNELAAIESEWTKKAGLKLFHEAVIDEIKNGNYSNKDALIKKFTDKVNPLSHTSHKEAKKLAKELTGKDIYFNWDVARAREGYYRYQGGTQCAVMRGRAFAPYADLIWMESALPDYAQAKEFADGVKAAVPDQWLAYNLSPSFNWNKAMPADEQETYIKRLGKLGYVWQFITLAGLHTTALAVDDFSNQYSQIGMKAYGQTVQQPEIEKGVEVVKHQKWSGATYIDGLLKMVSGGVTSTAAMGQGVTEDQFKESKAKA

In data set [1], `O=C(O)CC[N+](=O)[O-]` returned a half-maximal inhibitory concentration (IC50) of 53.9 µM.
As for `CC1(C)S[C@@H]2[C@H](NC(=O)[C@H](N)c3ccccc3)C(=O)N2[C@H]1C(=O)O` [AMPICILLIN], the MIC was determined as 6.3 µg/mL (≈ 18 µM) in data set [2]; 0.4 µg/mL (≈ 1.14 µM) in data set [3]; 0.4 µg/mL (≈ 1.14 µM) in [4]; 1.6 µg/mL (≈ 4.58 µM) in [5]; 0.4 µg/mL (≈ 1.14 µM) in data set [6]; 0.4 µg/mL (≈ 1.14 µM) in data set [7].
`O=C1O/C(=C\c2cc(Br)c(O)c(Br)c2)C(c2ccc(O)c(Br)c2)=C1C(=O)c1cc(Br)c(O)c(Br)c1` [CADIOLIDE E]: the MIC in data set [2] is greater than 100 µg/mL; in [3] it was 1.6 µg/mL (≈ 2.01 µM); in data set [4] it was 1.6 µg/mL (≈ 2.01 µM); in [5], 3.1 µg/mL (≈ 3.9 µM); in data set [6], 0.8 µg/mL (≈ 1.01 µM); in [7], 3.1 µg/mL (≈ 3.9 µM). For the same compound, the IC50 in data set [1] turned out to be 8.9 µM; in data set [10], 2.5 µM; in [11], 78.8 µM. Also, the CC50 at 48 h was 40.4 µM in [8] and greater than 100 µM in [9].
Turning to `COc1ccc(C=C2OC(=O)C([C@@H](O)c3cc(Br)c(OC)c(Br)c3)=C2c2cc(Br)c(O)c(Br)c2)cc1`, the MIC in data set [2] was greater than 100 µg/mL; in data set [3], 3.1 µg/mL (≈ 4.16 µM); in data set [4], 1.6 µg/mL (≈ 2.14 µM); in [5], 3.1 µg/mL (≈ 4.16 µM); in data set [6], 3.1 µg/mL (≈ 4.16 µM); in data set [7] it was 6.3 µg/mL (≈ 8.44 µM). Also, the IC50 is greater than 100 µM in data set [1], 13.5 µM in [10] and greater than 120 µM in [11]. The CC50 at 48 h in data set [8] worked out at 38.5 µM; in [9] it was 50.8 µM.
As for `COC(=O)C1=C(c2cc(Br)c(O)c(Br)c2)C(=O)OC1=C(c1cc(Br)c(O)c(Br)c1)c1cc(Br)c(O)c(Br)c1` [CADIOLIDE I], the MIC in data set [2] was greater than 100 µg/mL; in [3], 1.6 µg/mL (≈ 1.77 µM); in data set [4], 0.8 µg/mL (≈ 0.885 µM); in data set [5], 6.3 µg/mL (≈ 6.97 µM); in data set [6], 0.8 µg/mL (≈ 0.885 µM); in data set [7], 0.8 µg/mL (≈ 0.885 µM). In addition, the IC50 in [1] was 10.8 µM; in data set [10], 5 µM; in [11], greater than 120 µM. Also, the results for the CC50 at 48 h in [8] and in data set [9] were 52.7 µM and 51.2 µM, respectively.
On to `C[C@@H]1O[C@@H](O[C@H]2C[C@@H](O)[C@]3(CO)[C@H]4[C@H](O)C[C@]5(C)[C@@H](C6=CC(=O)OC6)CC[C@]5(O)[C@@H]4CC[C@]3(O)C2)[C@H](O)[C@H](O)[C@H]1O` [OUABAIN], for which the 50% inhibitory concentration (IC50) in data set [10] is 5.8 µM.
As for `COc1c(Br)cc([C@H](O)C2=C(c3ccc(O)c(Br)c3)/C(=C/c3ccc(O)c(Br)c3)OC2=O)cc1Br` [CADIOLIDE G], the MIC was greater than 100 µg/mL in data set [2]; 0.8 µg/mL (≈ 1.09 µM) in data set [3]; 12.5 µg/mL (≈ 17.1 µM) in [4]; 3.1 µg/mL (≈ 4.23 µM) in [5]; 3.1 µg/mL (≈ 4.23 µM) in data set [6]; 3.1 µg/mL (≈ 4.23 µM) in [7]. The IC50 in data set [1] is 49.8 µM; in data set [10] it was 10.3 µM; in [11], greater than 120 µM. For the same compound, the CC50 at 48 h in data set [8] and in data set [9] was greater than 100 µM throughout.
Consider `COC(=O)C(C(=O)c1cc(Br)c(O)c(Br)c1)=C(C(=O)OC)c1ccc(O)c(Br)c1`, for which the minimal inhibitory concentration (MIC) in data set [2], in [3], in data set [4], in [5], in [6] and in [7] was greater than 100 µg/mL in each case. For the same compound, the IC50 in data set [1] was 47.6 µM; in [10], 145 µM; in [11], greater than 120 µM. Further, the CC50 at 48 h was greater than 100 µM in data set [8] and 49.7 µM in data set [9].
Take `COc1cccc2c1C(=O)c1c(O)c3c(c(O)c1C2=O)C[C@@](O)(C(=O)CO)C[C@@H]3O[C@H]1C[C@H](N)[C@H](O)[C@H](C)O1` [DOXORUBICIN]: the CC50 at 48 h amounted to 1.7 µM in [8] and 4.7 µM in [9].
Take Para-Hydroxymercuribenzoic acid: in data set [11], the IC50 amounted to 106 µM.
As to `COC(=O)C(C(=O)c1cc(Br)c(O)c(Br)c1)=C(C(=O)OC)c1cc(Br)c(O)c(Br)c1`, the minimal inhibitory concentration (MIC) was greater than 100 µg/mL in data set [2]; 50 µg/mL (≈ 74.4 µM) in [3]; 50 µg/mL (≈ 74.4 µM) in data set [4]; 100 µg/mL (≈ 149 µM) in [5]; 100 µg/mL (≈ 149 µM) in [6]; 100 µg/mL (≈ 149 µM) in [7]. Besides, the values for the IC50 in [1], in data set [10] and in data set [11] were 26.3 µM, 28 µM and greater than 120 µM, respectively. Also, the CC50 at 48 h turned out to be 19.2 µM in data set [8] and 53.7 µM in data set [9].
